The test system of assay [1] is patients with primary insomnia. The experiment in a line: NREM sleep EEG spectral power after 4-week treatment, 3-arm parallel group study versus placebo. Type of assay: in vivo, human. The settings on record: 4-wks treatment, 20 and 50 mg; compared to baseline and to placebo. As for the experimental part: NREM sleep EEG power was calculated to evaluate the effects of chronic (4-week) administration of 20 mg and 50 mg piromelatine compared to those of placebo in patients with primary insomnia. Sleep EEG was recorded in 9 different centers in the frame of a 3-arm parallel group study with a random allocation of patients to one of the three treatment group (i.e., of the 121 patients who had exploitable sleep EEG data, 42 received placebo, 39 received piromelatine 20 mg, and 40 received piromelatine 50 mg).
Spectral power was calculated for all-night) and NREM sleep for the total EEG spectrum [0.5; 32] Hz and in the following frequency bands: delta [0.5; 4] Hz, theta [4; 8] Hz, alpha [8; 13] Hz, sigma [11.5; 15.5] Hz, beta [15.5; 32] Hz, beta1 [15.5; 20.5] Hz, beta2 [20.5; 25.5] Hz, and beta3 [25.5; 32] Hz.

In assay [2] the test system is patients with primary insomnia. The experiment in a line: REM sleep EEG spectral power after 4-week treatment, 3-arm parallel group study versus placebo. It is filed as in vivo, human. The settings on record: for REM EEG spectral power, Alpha power ([8; 13] Hz) / REM EEG spectral power, Beta1 power ([15.5; 20.5] Hz) / REM EEG spectral power, Beta2 power ([20.5; 25.5] Hz) / REM EEG spectral power, Beta3 power ([25.5; 32] Hz) / REM EEG spectral power, Beta power ([15.5; 32] Hz) / REM EEG spectral power, Delta power ([0.5; 4] Hz) / REM EEG spectral power, Sigma power ([11.5; 15.5] Hz) / REM EEG spectral power, Theta power ([4; 8] Hz) / REM EEG spectral power, Total EEG power ([0.5; 32] Hz): 4 wks, whole night sleep. As for the experimental part: REM sleep EEG power was calculated to evaluate the effects of chronic (4-week) administration of 20 mg and 50 mg piromelatine compared to those of placebo in patients with primary insomnia. Sleep EEG was recorded in 9 different centers in the frame of a 3-arm parallel group study with a random allocation of patients to one of the three treatment group (i.e., of the 121 patients who had exploitable sleep EEG data, 42 received placebo, 39 received piromelatine 20 mg, and 40 received piromelatine 50 mg).
Spectral power was calculated for all-night) and REM sleep for the total EEG spectrum [0.5; 32] Hz and in the following frequency bands: delta [0.5; 4] Hz, theta [4; 8] Hz, alpha [8; 13] Hz, sigma [11.5; 15.5] Hz, beta [15.5; 32] Hz, beta1 [15.5; 20.5] Hz, beta2 [20.5; 25.5] Hz, and beta3 [25.5; 32] Hz.
Note, REM sleep is longest during the third part of the night.

The results in this text go back to US20240238250A1, “METHOD OF USING PIROMELATINE FOR TREATING PARASOMNIAS ASSOCIATED WITH LOSS OF REM SLEEP ATONIA” (NEURIM PHARMACEUTICALS (1991) LTD., priority 2023, published 2024).

“Also recorded” adds a separate entry of the source.

For the compound `COc1ccc2[nH]cc(CCNC(=O)c3cc(=O)cco3)c2c1` [Piromelatine, N-(2-(5-methoxy-1H-indol-3-yl)ethyl)-4-oxo-4H-pyran-2-carboxamide], the “effect on NREM low frequency band (0.5-1.5 Hz) (in words)” value in assay [1] is given as “can increase the NREM low frequency band”. Further, the “effect on REM sleep alpha power band (in words)” value in assay [2] (4-wks treatment, 20 and 50 mg, compared to baseline and to placebo, in particular during the longest REM period in the third part of the night sleep) is on record as “increases the spectral power in the a band during REM sleep; also recorded: enhances the REM sleep alpha power band”. In assay [2] (patients with insomnia aged 20-80 years), the “effect on other frequencies during REM sleep (in words)” value is on record as “minor or no changes in other frequencies”. Besides, in assay [2] (piromelatine 20 mg, n = 39), the “REM EEG spectral power, Alpha power ([8; 13] Hz)” value was 103.36 % of baseline values; the “REM EEG spectral power, Beta1 power ([15.5; 20.5] Hz)” value is 100.36 % of baseline values; the “REM EEG spectral power, Beta2 power ([20.5; 25.5] Hz)” value was 98.51 % of baseline values; the “REM EEG spectral power, Beta3 power ([25.5; 32] Hz)” value was 97.56 % of baseline values. Besides, in assay [2] (piromelatine 20 mg, n = 39), the “REM EEG spectral power, Beta power ([15.5; 32] Hz)” value is given as 98.95 % of baseline values; the “REM EEG spectral power, Delta power ([0.5; 4] Hz)” value is on record as 100.29 % of baseline values; the “REM EEG spectral power, Sigma power ([11.5; 15.5] Hz)” value is 100.34 % of baseline values; the “REM EEG spectral power, Theta power ([4; 8] Hz)” value is 101.45 % of baseline values. The “REM EEG spectral power, Total EEG power ([0.5; 32] Hz)” value in assay [2] (piromelatine 20 mg, n = 39) is recorded as 99.76 % of baseline values. In assay [2] (piromelatine 50 mg, n = 40), the “REM EEG spectral power, Beta1 power ([15.5; 20.5] Hz)” value was 98.19 % of baseline values; the “REM EEG spectral power, Beta2 power ([20.5; 25.5] Hz)” value was 99.93 % of baseline values; the “REM EEG spectral power, Beta3 power ([25.5; 32] Hz)” value is given as 97.73 % of baseline values; the “REM EEG spectral power, Beta power ([15.5; 32] Hz)” value is listed as 99.55 % of baseline values. For the same compound, in assay [2] (piromelatine 50 mg, n = 40), the “REM EEG spectral power, Delta power ([0.5; 4] Hz)” value is reported as 103.73 % of baseline values; the “REM EEG spectral power, Sigma power ([11.5; 15.5] Hz)” value was 103.14 % of baseline values; the “REM EEG spectral power, Theta power ([4; 8] Hz)” value is 105.03 % of baseline values; the “REM EEG spectral power, Total EEG power ([0.5; 32] Hz)” value is recorded as 105.33 % of baseline values. Further, in assay [2] (piromelatine 50 mg, n = 40, * significant difference (P < 0.05) compared to placebo), the “REM EEG spectral power, Alpha power ([8; 13] Hz)” value is listed as 106.55* % of baseline values.
